Consider 15 compounds from patent publication EP1067939B1, “USE OF STEROIDAL ALKALOID DERIVATIVES AS INHIBITORS OF HEDGEHOG PROTEIN SIGNALING PATHWAYS” (The Johns Hopkins University, priority 1998, dated 1999).

Structures are written as SMILES. Read-outs that look alike come from different tables or passages of the source.

Test [1] addresses T1, His6Hh-C (Drosophila melanogaster, UniProt Q02936).
T1 construct: made in house
Nature of the test: In vitro Hh autoprocessing reaction with purified components. It is filed as biochemical. To be noted: for efficiency in driving the in vitro autoprocessing reaction: 12 µM sterol.

Test [2] relates to Shh-N. Description: Intermediate neural plate explant response to exogenous Shh-N protein. It is filed as cell-based, chick.
Test [3] has as its system BMP7. Nature of the test: Neural plate explant response to BMP7 (migratory HNK-1 positive cells). It counts as cell-based, chick.
Where [4] appears, read: at the concentrations that block the response to 25 nM Shh-N.

T1 sequence (Q02936 252-471): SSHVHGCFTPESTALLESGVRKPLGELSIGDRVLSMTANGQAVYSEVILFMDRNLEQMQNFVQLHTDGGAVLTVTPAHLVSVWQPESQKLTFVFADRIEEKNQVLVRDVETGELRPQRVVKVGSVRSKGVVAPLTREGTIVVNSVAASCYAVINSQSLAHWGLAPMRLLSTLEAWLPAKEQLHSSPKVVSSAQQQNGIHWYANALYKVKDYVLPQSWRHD

Turning to `CC(C)CCC[C@@H](C)[C@H]1CC[C@H]2C3=CC=C4C[C@@H](O)CC[C@]4(C)[C@H]3CC[C@]12C` [7DHC, 7-dehydrocholestetol], the “efficiency in driving the in vitro autoprocessing reaction” value (“efficiency” below) in test [1] is “efficiencies similar to that of cholesterol”.

Regarding `CC(C)(O)CC[C@@H](O)[C@](C)(O)[C@H]1CC[C@@]2(O)C3=CC(=O)[C@@H]4C[C@@H](O)[C@@H](O)C[C@]4(C)[C@H]3CC[C@]12C` [20-OH ecdysone], the “participation of sterol in the autoprocessing reaction” value (from here on “participation of sterol”) in test [1] is recorded as “unable to participatein the reaction”.

Turning to `C[C@H](CCCC(C)(C)O)[C@H]1CC[C@H]2[C@@H]3CC=C4C[C@@H](O)CC[C@]4(C)[C@H]3CC[C@]12C` [25-hydroxycholesterol], the “reversal of the inhibitory effects of the teratogenic compounds” value in test [2] (25 µM added together with teratogenic compounds) is on record as “did not reverse the inhibitory effects”. For the same compound, in test [2] (25 µM, 2nM or 25 nM Shh-N), the “explant responses to Shh-N” value was “None of the explant responses to treatment with 2nM or 25 nM Shh-N were affected”.

Consider `CC(C)CCC[C@@H](C)[C@H]1CC[C@H]2[C@@H]3CC=C4C[C@H](O)CC[C@]4(C)[C@H]3CC[C@]12C` [Epicholesterol], for which the “participation of sterol” value in test [1] is given as “unable to participatein the reaction”.

Take `CC(C)=CCC[C@@H](C)[C@H]1CC[C@@]2(C)C3=C(CC[C@]12C)[C@@]1(C)CC[C@H](O)C(C)(C)[C@@H]1CC3` [Lanosterol]: the stimulation of autoprocessing entry in test [1] (12 and 350 µM) was “do not stimulate autoprocessing above background”.

As to `CCN(CC)CCO[C@H]1CC[C@@]2(C)C(=CC[C@@H]3[C@@H]2CC[C@]2(C)C(=O)CC[C@@H]32)C1` [U 18666A], the “concentration that blocks the response of intermediate neural plate explants to 25 nM Shh-N” value (from here on “concentration that blocks the response”) in test [2] (25 nM Shh-N) came out at 0.25 µM. Further, the “signaling by BMP7” value in test [3] (setting [4]) is listed as “without affecting signaling by BMP7”.

As for `CCN(CC)CCCC(C)Nc1ccnc2cc(Cl)ccc12` (centres unmarked) [chloroquine], the “concentration that blocks the response” value in test [2] is given as 50 µM. Also, in test [3], the “signaling by BMP7” value is reported as “without affecting signaling by BMP7”.

For the compound `CC(=O)O[C@H]1CC[C@@]2(C)C(=CC[C@H]3[C@@H]4CC[C@H]([C@H](C)CCCC(C)C)[C@@]4(C)CC[C@@H]32)C1` [cholesterol acetate], the “participation of sterol” value in test [1] was “unable to participatein the reaction”.

For `CC(C)=CCC[C@@H](C)[C@H]1CC[C@H]2[C@@H]3CC=C4C[C@@H](O)CC[C@]4(C)[C@H]3CC[C@]12C` [desmosterol], the “efficiency” value in test [1] is “efficiencies similar to that of cholesterol”.

`CN(C)CCCN1c2ccccc2CCc2ccccc21` [imipramine]: the “concentration that blocks the response” value in test [2] (25 nM Shh-N) was 75 µM. The “signaling by BMP7” value in test [3] (setting [4]) is listed as “without affecting signaling by BMP7”.

Consider `CC(C)CCC[C@@H](C)[C@H]1CC[C@H]2C3=CC[C@H]4C[C@@H](O)CC[C@]4(C)[C@H]3CC[C@]12C` [lathosterol], for which the “efficiency” value in test [1] is recorded as “efficiencies similar to that of cholesterol”.

Regarding `CC(C)CC[C@@H](O)[C@](C)(O)[C@H]1CC[C@@]2(O)C3=CC(=O)[C@]4(O)C[C@@H](O)[C@@H](O)C[C@]4(C)[C@H]3[C@H](O)C[C@]12C` [muristerone], in test [1], the stimulation of autoprocessing result is on record as “do not stimulate autoprocessing above background”.

In the case of `CC(=O)[C@H]1CC[C@H]2[C@@H]3CCC4=CC(=O)CC[C@]4(C)[C@H]3CC[C@]12C` [progesterone], the “concentration that blocks the response” value in test [2] (25 nM Shh-N) was determined as 20 µM. Also, the “signaling by BMP7” value in test [3] (setting [4]) is “without affecting signaling by BMP7”.

`CC(C)CCC[C@@H](C)[C@H]1CC[C@H]2[C@@H]3CC=C4C[C@@H](S)CC[C@]4(C)[C@H]3CC[C@]12C` [thiocholesterol]: the “participation of sterol” value in test [1] was “unable to participatein the reaction”.

Turning to `C[C@H]([C@H](O)CCC(C)(C)O)[C@H]1CC[C@@]2(O)C3=CC(=O)[C@@H]4C[C@@H](O)[C@@H](O)C[C@]4(C)[C@H]3CC[C@]12C` [α-ecdysone], the “participation of sterol” value in test [1] is recorded as “unable to participatein the reaction”.
